The source of these data is patent US7868005B2, “Pyrazinyl substituted piperazine-piperidines with CXCR3 antagonist activity” (Schering Corporation, priority 2005, dated 2011).

The target in the assay is T1, human CXCR3 (N-delta 4) (Homo sapiens, UniProt P49682).
T1 construct: CD8 leader (N); Flag; expressed in transfected cells; membranes prepared
T1 sequence (P49682 5-368 limits assumed): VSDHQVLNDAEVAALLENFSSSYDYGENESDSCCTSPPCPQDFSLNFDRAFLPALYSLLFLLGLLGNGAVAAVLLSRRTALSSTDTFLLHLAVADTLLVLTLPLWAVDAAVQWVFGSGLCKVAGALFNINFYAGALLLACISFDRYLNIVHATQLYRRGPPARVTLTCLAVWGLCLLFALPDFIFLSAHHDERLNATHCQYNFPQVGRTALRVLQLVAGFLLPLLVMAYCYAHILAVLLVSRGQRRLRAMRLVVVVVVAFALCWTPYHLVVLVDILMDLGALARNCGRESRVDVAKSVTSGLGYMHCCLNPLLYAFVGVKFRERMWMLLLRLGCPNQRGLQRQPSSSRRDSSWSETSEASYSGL
Briefly: Human CXCR3 (N-delta 4) Scintillation Proximity Assay (SPA), [125I] IP-10 binding to Ba/F3-hCXCR3 membranes. The source says:
The inventive compounds can readily be evaluated to determine activity at the CXCR3 receptors by known methods, such as, for example, development of a human CXCR3 (N-delta 4) Binding Assay.
Cloning and Expression of Human CXCR3 (N-delta 4):
The DNA encoding human CXCR3 was cloned by PCR using human genomic DNA (Promega, Madison, Wis.) as a template. The PCR primers were designed based on the published sequence of human orphan receptor GPR9 (1) with incorporated restriction sites, a Kozak consensus sequence, CD8 leader and Flag tag. The PCR product was subcloned into the mammalian expression vector pME18Sneo, a derivative of the SR-alpha expression vector (designated as pME18Sneo-hCXCR3 (N-delta 4).
IL-3-dependent mouse pro-B cells Ba/F3 were transfected by electroporation in 0.4 ml Dulbecco's PBS containing 4×10^6 cells with 20 μg of pME18Sneo-hCXCR3 (N-delta 4) plasmid DNA. Cells were pulsed at 400 Volts, 100 OHMs, 960 μFd. The transfected cells were under selection with 1 mg/ml G418 (Life Technologies, Gaithersburg, Md.). G418-resistant Ba/F3 clones were screened for CXCR3 expression by specific binding of [^125I] IP-10 (NEN Life Science Products, Boston, Mass.).
Preparation of Ba/F3-hCXCR3 (N-delta 4) Membranes:
Ba/F3 cells expressing human CXCR3 (N-delta 4) were pelleted and resuspended in the lysis buffer containing 10 mM HEPES, pH 7.5 and Complete® protease inhibitors (1 tablet per 100 ml) (Boehringer Mannheim, Indianapolis, Ind.) at a cell density of 20×10^6 cells per ml. After 5 minute incubation on ice, cells were transferred to 4639 cell disruption bomb (Parr Instrument, Moline, Ill.) and applied with 1,500 psi of nitrogen for 30 minutes on ice. Large cellular debris was removed by centrifugation at 1,000×g. Cell membrane in the supernatant was sedimented at 100,000×g. The membrane was resuspended in the lysis buffer supplemented with 10% sucrose and stored at −80° C. Total protein concentration of the membrane was determined by BCA method from Pierce (Rockford, Ill.).
Human CXCR3 (N-delta 4) Scintillation Proximity Assay (SPA):
For each assay point, 2 μg of membrane was preincubated for 1 hr with 300 μg wheat germ agglutinin (WGA) coated SPA beads (Amersham, Arlington Heights, Ill.) in the binding buffer (50 mM HEPES, 1 mM CaCl2, 5 mM MgCl2, 125 mM NaCl, 0.002% NaN3, 1.0% BSA) at room temperature. The beads were spun down, washed once, resuspended in the binding buffer and transferred to a 96-well Isoplate (Wallac, Gaithersburg, Md.). 25 pM of [^125I] IP-10 with tested compounds in a series of titration were added to start the reaction. After 3 hr reaction at room temperature, the amount of [^125I] IP-10 bound to the SPA beads was determined with a Wallac 1450 Microbeta counter.
The Ki ratings for the various compounds of the present invention are given in the afore-mentioned Table 1. From these ratings and value ranges, it would be apparent to the skilled artisan that the compounds of the invention have excellent utility as CXCR3 receptor antagonists.
In general terms: Scintillation proximity formats need no separation of bound from free tracer.

[1] abbreviates: IC50 rating, Table 1, read-out: IC50.

Each structure is given as a SMILES string. Read-outs that look alike come from different tables or passages of the source.

With `CC[C@H]1CN(c2nc(N)c(C(N)=O)nc2Cl)CCN1C1CCN(Cc2ccc(Cl)cc2CCNC(C)=O)CC1` [compound 41], the half-maximal inhibitory concentration (IC50) under setting [1] fell in the range of 25 to 100 nM.

Regarding `CC[C@H]1CN(c2nc(N)c(C(=O)NCCO)nc2Cl)CCN1C1CCN(Cc2ccc(C#N)cc2)CC1` [compound 121], the IC50 under setting [1] was below 25 nM. Same read-out and setting: to `CC[C@H]1CN(c2nc(N)c(C(=O)NCCNS(=O)(=O)C(F)(F)F)nc2Cl)CCN1C1CCN(Cc2ccc(F)c(F)c2N2CC[C@@H](O)C2)CC1` [compound 240] belongs below 25 nM; to `CC[C@H]1CN(c2nc(N)c(C(=O)N[C@@H](C)CO)nc2Cl)CCN1C1CCN(C(=O)c2ccc(Cl)cc2)CC1` [compound 323], 25 to 100 nM. The same measure, in the same setting: to `CC[C@H]1CN(c2nc(N)c(C(=O)NCCO)nc2Cl)CCN1C1CCN(Cc2ccc(C#CC(C)(C)O)cc2)CC1` [compound 144] belongs below 25 nM; to `CC[C@H]1CN(c2nc(N)c(C(=O)NCCO)nc2Cl)CCN1C1CCN(C2c3ccc(C#N)cc3CCC2O)CC1` (some centres unmarked) [compound 304], below 25 nM; to `CC[C@H]1CN(c2nc(N)c(C(=O)NC)nc2Cl)CCN1C1CCN(C(=O)c2ccc(-c3cnco3)cc2)CC1` [compound 354], above 100 nM.

As for `CC[C@H]1CN(c2nc(N)c(C(=O)NCCO)nc2Cl)CCN1C1CCN(Cc2ccc(F)c(F)c2N2CC[C@H](O)C2)CC1` [compound 172], the IC50 under setting [1] was below 25 nM.

In the case of `CC[C@H]1CN(c2nc(N)c(C(N)=O)nc2Cl)CCN1C1CCN([C@@H](C(=O)NC2CC2)c2ccc(Cl)cc2)CC1` [compound 45], the IC50 under setting [1] is above 100 nM. For `CC[C@H]1CN(c2nc(N)c(C(=O)NCCO)nc2Cl)CCN1C1CCN(Cc2ccc(Cl)cc2OCCNS(N)(=O)=O)CC1` [compound 134], under setting [1], the IC50 is below 25 nM. On the same count and under the same terms, to `CC[C@H]1CN(c2nc(N)c(C(=O)NCCNS(C)(=O)=O)nc2Cl)CCN1C1CCN([C@@H](C(=O)OC)c2ccc(Cl)cc2)CC1` [compound 250] belongs 25 to 100 nM; to `CC[C@H]1CN(c2nc(N)c(C(N)=O)nc2Cl)CCN1C1CCN(Cc2ccc(Cl)cc2CCNC(=O)OC)CC1` [compound 39], 25 to 100 nM; to `CC[C@H]1CN(c2nc(N)c(C(=O)NCCO)nc2Cl)CCN1C1CCN(Cc2ccc(N3CCOCC3)c(F)c2F)CC1` [compound 205], above 100 nM. Consider `CC[C@H]1CN(c2nc(N)c(C(=O)NCCO)nc2Cl)CCN1C1CCN(Cc2ccc(F)c(F)c2)CC1` [compound 123], for which the IC50 under setting [1] is below 25 nM. Same read-out and setting: as for `CC[C@H]1CN(c2nc(N)c(C(=O)NCCNS(=O)(=O)C(F)(F)F)nc2Cl)CCN1C1CCN(Cc2ccc(Cl)cc2)CC1` [compound 238], the figure is below 25 nM. Same read-out and setting: as for `CC[C@H]1CN(c2nc(N)c(C(=O)NC[C@@H](C)O)nc2Cl)CCN1C1CCN(Cc2ccc(Cl)cc2CCNC(C)=O)CC1` [compound 224], the figure is 25 to 100 nM.

`CC[C@H]1CN(c2nc(N)c(C(=O)NCCO)nc2Cl)CCN1C1CCN(Cc2cc(F)c(Cl)cc2O)CC1` [compound 159]: the IC50 under setting [1] was below 25 nM. For `CC[C@H]1CN(c2nc(N)c(C(=O)NCCO)nc2Cl)CCN1C1CCN(C(=O)c2ccc(C#CC(C)(C)O)cc2)CC1` [compound 346], the IC50 under setting [1] lay within 25 to 100 nM.

In the case of `CC[C@H]1CN(c2nc(N)c(C(=O)NCCO)nc2Cl)CCN1C1CCN(C(=O)c2ccc(Cl)cc2O)CC1` [compound 322], under setting [1], the IC50 lay in the range of 25 to 100 nM. The same measure, in the same setting: as for `CC[C@H]1CN(c2nc(N)c(C(N)=O)nc2Cl)CCN1C1CCN(Cc2ccc(Cl)cc2CC(=O)OC)CC1` [compound 38], the figure is 25 to 100 nM; as for `CC[C@H]1CN(c2nc(N)c(C(=O)NC(=N)NC)nc2Cl)CCN1C1CCN(C(=O)c2ccc(Cl)c(F)c2)CC1` [compound 392], below 25 nM; as for `CC[C@H]1CN(c2ncc(C(N)=O)nc2C)CCN1C1CCN(C(=O)c2ccc(Cl)cc2N)CC1` [compound 442], below 25 nM.

For `CC[C@H]1CN(c2nc(N)c(C(=O)NCCNS(N)(=O)=O)nc2Cl)CCN1C1CCN(C(CO)c2ccc(Cl)cc2)CC1` (some centres unmarked) [compound 259], the IC50 under setting [1] is below 25 nM. Still for that read-out and setting: to `CC[C@H]1CN(c2nc(N)c(C(N)=O)nc2Cl)CCN1C1CCN(Cc2ccc(Cl)cc2CCNS(C)(=O)=O)CC1` [compound 36] belongs 25 to 100 nM; to `CC[C@H]1CN(c2nc(N)c(C(=O)N3CC[C@H](NS(C)(=O)=O)C3)nc2Cl)CCN1C1CCN(Cc2ccc(Cl)cc2)CC1` [compound 209], above 100 nM; to `CC[C@H]1CN(c2nc(N)c(C(=O)NCCO)nc2Cl)CCN1C1CCN(Cc2ccc(C#N)cc2OCCOC)CC1` [compound 163], below 25 nM. The same measure, in the same setting: to `CC[C@H]1CN(c2nc(N)c(C(=O)OC)nc2Cl)CCN1C1CCN(Cc2ccc(Cl)cc2F)CC1` [compound 295] belongs below 25 nM; to `CC[C@H]1CN(c2nc(N)c(C(=O)NCCCN3CCCC3=O)nc2Cl)CCN1C1CCN(Cc2ccc(C#N)cc2)CC1` [compound 276], above 100 nM. Still for that read-out and setting: to `CC[C@H]1CN(c2nc(N)c(C(=O)OC)nc2Cl)CCN1C1CCN(C2c3ccc(C#N)cc3CCC2O)CC1` (some centres unmarked) [compound 305] belongs above 100 nM; to `CC[C@H]1CN(c2nc(N)c(C(=O)NCCO)nc2Cl)CCN1C1CCN(C(=O)c2cc(F)c(F)cc2NC(=O)c2cc(F)c(F)cc2N)CC1` [compound 363], above 100 nM; to `CC[C@H]1CN(c2nc(N)c(C(=O)NCc3cc(O)no3)nc2Cl)CCN1C1CCN(Cc2ccc(Cl)cc2)CC1` [compound 212], above 100 nM. As to `CC[C@H]1CN(c2nc(N)c(C(=O)NCCO)nc2Cl)CCN1C1CCN(Cc2ccc(F)c(F)c2O)CC1` [compound 178], under setting [1], the IC50 lay in the range of 25 to 100 nM. On the same count and under the same terms, as for `CC[C@H]1CN(c2nc(N)c(C(=O)NC3CC3)nc2Cl)CCN1C1CCN(Cc2ccc(Cl)cc2O)CC1` [compound 84], the figure is below 25 nM. Still for that read-out and setting: as for `CC[C@H]1CN(c2nc(N)c(C(=O)NC)nc2Cl)CCN1C1CCN(CCCCc2ccc(Cl)cc2)CC1` [compound 72], the figure is 25 to 100 nM.

Turning to `CC[C@H]1CN(c2nc(N)c(C(=O)OC)nc2Cl)CCN1C1CCN(Cc2ccc(C#N)cc2OCCO)CC1` [compound 307], under setting [1], the IC50 is above 100 nM.

`CC[C@H]1CN(c2nc(N)c(C(=O)NCCO)nc2Cl)CCN1C1CCN(Cc2ccc(OS(C)(=O)=O)c(F)c2)CC1` [compound 426]: the IC50 under setting [1] is above 100 nM. Still for that read-out and setting: as for `CC[C@H]1CN(c2ncc(C(=O)NC3CC3)nc2C)CCN1C1CCN(Cc2ccc(Cl)cc2)CC1` [compound 449], the figure is below 25 nM. Still for that read-out and setting: to `CC[C@H]1CN(c2nc(N)c(C(=O)NCCO)nc2Cl)CCN1C1CCN(Cc2ccc(Cl)cc2C#N)CC1` [compound 136] belongs below 25 nM; to `CC[C@H]1CN(c2ncc(C(N)=O)nc2Cl)CCN1C1CCN(C(=O)c2ccc(Cl)c(OCCS(C)(=O)=O)c2)CC1` [compound 409], below 25 nM; to `CC[C@H]1CN(c2ncc(C(=O)NC3CC3)nc2C)CCN1C1CCN([C@@H](C(=O)OC)c2ccc(F)c(F)c2)CC1` [compound 486], below 25 nM. On the same count and under the same terms, as for `CC[C@H]1CN(c2nc(N)c(C(=O)NCCNS(C)(=O)=O)nc2Cl)CCN1C1CCN(Cc2ccc(F)c(F)c2N2CC[C@@H](O)C2)CC1` [compound 252], the figure is 25 to 100 nM; as for `CC[C@H]1CN(c2nc(N)c(C(=O)NCCO)nc2Cl)CCN1C1CCN(Cc2ccc(Oc3ccc(F)cc3)cc2)CC1` [compound 162], below 25 nM. `CC[C@H]1CN(c2nc(N)c(C(=O)NCCO)nc2Cl)CCN1C1CCN([C@@H](CO)c2ccc(Cl)cc2)CC1` [Formula 8]: the IC50 (human, read-out: human IC50) is below 1 nM. With `CC[C@H]1CN(c2ncc(C(N)=O)nc2OC)CCN1C1CCN(C(=O)c2ccc(Cl)cc2)CC1` [compound 379], under setting [1], the IC50 is above 100 nM.

Usually IC50 stands for the concentration that inhibits the measured activity by half.
